Columns and labels:
[1] = target: T1, ABL1(E255K)-phosphorylated (Homo sapiens, UniProt P00519, E255K); assay: KinomeScan; assay type: binding; details: 1uM
T1 construct: purchased DiscoveRx KINOMEscan

[2] = target: T2, ABL1(F317I)-nonphosphorylated (Homo sapiens, UniProt P00519, F317I); assay: KinomeScan; assay type: binding; details: 1uM
T2 construct: purchased DiscoveRx KINOMEscan

ABL1-phosphorylated = target: T3, ABL1-phosphorylated (Homo sapiens, UniProt P00519); assay: KinomeScan; assay type: binding; details: 1uM
T3 construct: purchased DiscoveRx KINOMEscan

AURKA = target: T4, AURKA (Homo sapiens, UniProt O14965); assay: KinomeScan; assay type: binding; details: 1uM
T4 construct: purchased DiscoveRx KINOMEscan

BUB1 = target: T5, BUB1 (Homo sapiens, UniProt O43683); assay: KinomeScan; assay type: binding; details: 1uM
T5 construct: purchased DiscoveRx KINOMEscan

CDC2L1 = target: T6, CDC2L1 (Homo sapiens, UniProt P21127); assay: KinomeScan; assay type: binding; details: 1uM
T6 construct: purchased DiscoveRx KINOMEscan

DRAK2 = target: T7, DRAK2 (Homo sapiens, UniProt O94768); assay: KinomeScan; assay type: binding; details: 1uM
T7 construct: purchased DiscoveRx KINOMEscan

EGFR(T790M) = target: T8, EGFR(T790M) (Homo sapiens, UniProt P00533, T790M); assay: KinomeScan; assay type: binding; details: 1uM
T8 construct: purchased DiscoveRx KINOMEscan
T8 sequence (P00533 25-1210 T790M): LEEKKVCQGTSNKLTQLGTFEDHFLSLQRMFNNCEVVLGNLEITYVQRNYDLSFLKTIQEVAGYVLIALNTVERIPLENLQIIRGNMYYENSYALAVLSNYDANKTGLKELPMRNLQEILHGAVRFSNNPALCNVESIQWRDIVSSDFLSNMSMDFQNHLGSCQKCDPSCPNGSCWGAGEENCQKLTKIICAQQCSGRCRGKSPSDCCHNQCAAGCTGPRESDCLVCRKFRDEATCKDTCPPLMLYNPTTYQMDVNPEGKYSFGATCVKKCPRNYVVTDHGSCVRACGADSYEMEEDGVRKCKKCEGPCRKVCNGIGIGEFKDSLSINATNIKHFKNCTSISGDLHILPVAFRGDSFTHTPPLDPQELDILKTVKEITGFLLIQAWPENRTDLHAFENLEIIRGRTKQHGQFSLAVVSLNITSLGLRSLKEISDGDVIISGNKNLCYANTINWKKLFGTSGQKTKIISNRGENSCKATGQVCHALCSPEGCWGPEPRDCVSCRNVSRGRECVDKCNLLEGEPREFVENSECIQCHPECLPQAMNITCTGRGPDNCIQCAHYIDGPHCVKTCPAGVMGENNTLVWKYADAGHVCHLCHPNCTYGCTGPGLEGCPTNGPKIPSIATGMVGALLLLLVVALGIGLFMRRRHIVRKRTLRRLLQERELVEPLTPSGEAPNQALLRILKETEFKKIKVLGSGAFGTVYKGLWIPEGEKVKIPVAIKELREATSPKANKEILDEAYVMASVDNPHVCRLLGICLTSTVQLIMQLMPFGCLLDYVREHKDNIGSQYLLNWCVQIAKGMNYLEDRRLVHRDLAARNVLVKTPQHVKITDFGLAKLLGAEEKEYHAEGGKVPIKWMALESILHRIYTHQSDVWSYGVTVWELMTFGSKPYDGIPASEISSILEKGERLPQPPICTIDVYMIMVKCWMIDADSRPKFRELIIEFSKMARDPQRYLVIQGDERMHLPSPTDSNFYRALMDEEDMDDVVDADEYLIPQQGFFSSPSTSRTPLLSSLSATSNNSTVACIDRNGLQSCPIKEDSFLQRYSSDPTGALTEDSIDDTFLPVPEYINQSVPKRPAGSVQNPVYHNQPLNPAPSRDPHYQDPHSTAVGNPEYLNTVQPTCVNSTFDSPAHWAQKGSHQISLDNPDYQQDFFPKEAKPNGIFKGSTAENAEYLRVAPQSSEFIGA

EIF2AK1 = target: T9, EIF2AK1 (Homo sapiens, UniProt Q9BQI3); assay: KinomeScan; assay type: binding; details: 1uM
T9 construct: purchased DiscoveRx KINOMEscan

ERK2 = target: T10, ERK2 (Homo sapiens, UniProt P28482); assay: KinomeScan; assay type: binding; details: 1uM
T10 construct: purchased DiscoveRx KINOMEscan

FAK = target: T11, FAK (Homo sapiens, UniProt Q05397); assay: KinomeScan; assay type: binding; details: 1uM
T11 construct: purchased DiscoveRx KINOMEscan

GSK3A = target: T12, GSK3A (Homo sapiens, UniProt P49840); assay: KinomeScan; assay type: binding; details: 1uM
T12 construct: purchased DiscoveRx KINOMEscan
T12 sequence (P49840 whole entry): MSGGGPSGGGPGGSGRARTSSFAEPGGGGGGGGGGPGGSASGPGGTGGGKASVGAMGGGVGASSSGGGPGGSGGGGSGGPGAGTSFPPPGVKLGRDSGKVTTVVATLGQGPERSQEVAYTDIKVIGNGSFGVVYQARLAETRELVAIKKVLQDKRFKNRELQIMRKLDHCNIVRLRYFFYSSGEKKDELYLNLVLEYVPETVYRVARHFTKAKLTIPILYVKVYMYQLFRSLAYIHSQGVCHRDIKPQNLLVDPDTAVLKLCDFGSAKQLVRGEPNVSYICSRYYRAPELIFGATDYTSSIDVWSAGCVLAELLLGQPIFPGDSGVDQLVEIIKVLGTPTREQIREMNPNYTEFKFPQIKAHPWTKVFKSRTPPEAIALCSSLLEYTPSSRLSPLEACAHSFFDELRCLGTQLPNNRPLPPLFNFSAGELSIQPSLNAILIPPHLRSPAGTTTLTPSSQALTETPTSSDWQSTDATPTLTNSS

ICK = target: T13, ICK (Homo sapiens, UniProt Q9UPZ9); assay: KinomeScan; assay type: binding; details: 1uM
T13 construct: purchased DiscoveRx KINOMEscan

KIT(D816H) = target: T14, KIT(D816H) (Homo sapiens, UniProt P10721, D816H); assay: KinomeScan; assay type: binding; details: 1uM
T14 construct: purchased DiscoveRx KINOMEscan

LKB1 = target: T15, LKB1 (Homo sapiens, UniProt Q15831); assay: KinomeScan; assay type: binding; details: 1uM
T15 construct: purchased DiscoveRx KINOMEscan

MAP4K5 = target: T16, MAP4K5 (Homo sapiens, UniProt Q9Y4K4); assay: KinomeScan; assay type: binding; details: 1uM
T16 construct: purchased DiscoveRx KINOMEscan

MERTK = target: T17, MERTK (Homo sapiens, UniProt Q12866); assay: KinomeScan; assay type: binding; details: 1uM
T17 construct: purchased DiscoveRx KINOMEscan

MET = target: T18, MET (Homo sapiens, UniProt P08581); assay: KinomeScan; assay type: binding; details: 1uM
T18 construct: purchased DiscoveRx KINOMEscan

MINK = target: T19, MINK (Homo sapiens, UniProt Q8N4C8); assay: KinomeScan; assay type: binding; details: 1uM
T19 construct: purchased DiscoveRx KINOMEscan

MKK7 = target: T20, MKK7 (Homo sapiens, UniProt O14733); assay: KinomeScan; assay type: binding; details: 1uM
T20 construct: purchased DiscoveRx KINOMEscan

MST1 = target: T21, MST1 (Homo sapiens, UniProt Q13043); assay: KinomeScan; assay type: binding; details: 1uM
T21 construct: purchased DiscoveRx KINOMEscan

PCTK2 = target: T22, PCTK2 (Homo sapiens, UniProt Q00537); assay: KinomeScan; assay type: binding; details: 1uM
T22 construct: purchased DiscoveRx KINOMEscan

PFTK1 = target: T23, PFTK1 (Homo sapiens, UniProt O94921); assay: KinomeScan; assay type: binding; details: 1uM
T23 construct: purchased DiscoveRx KINOMEscan

PIK3CA(C420R) = target: T24, PIK3CA(C420R) (Homo sapiens, UniProt P42336, C420R); assay: KinomeScan; assay type: binding; details: 1uM
T24 construct: purchased DiscoveRx KINOMEscan

PIK3CA(H1047L) = target: T25, PIK3CA(H1047L) (Homo sapiens, UniProt P42336, H1047L); assay: KinomeScan; assay type: binding; details: 1uM
T25 construct: purchased DiscoveRx KINOMEscan
T25 sequence (P42336 whole entry H1047L): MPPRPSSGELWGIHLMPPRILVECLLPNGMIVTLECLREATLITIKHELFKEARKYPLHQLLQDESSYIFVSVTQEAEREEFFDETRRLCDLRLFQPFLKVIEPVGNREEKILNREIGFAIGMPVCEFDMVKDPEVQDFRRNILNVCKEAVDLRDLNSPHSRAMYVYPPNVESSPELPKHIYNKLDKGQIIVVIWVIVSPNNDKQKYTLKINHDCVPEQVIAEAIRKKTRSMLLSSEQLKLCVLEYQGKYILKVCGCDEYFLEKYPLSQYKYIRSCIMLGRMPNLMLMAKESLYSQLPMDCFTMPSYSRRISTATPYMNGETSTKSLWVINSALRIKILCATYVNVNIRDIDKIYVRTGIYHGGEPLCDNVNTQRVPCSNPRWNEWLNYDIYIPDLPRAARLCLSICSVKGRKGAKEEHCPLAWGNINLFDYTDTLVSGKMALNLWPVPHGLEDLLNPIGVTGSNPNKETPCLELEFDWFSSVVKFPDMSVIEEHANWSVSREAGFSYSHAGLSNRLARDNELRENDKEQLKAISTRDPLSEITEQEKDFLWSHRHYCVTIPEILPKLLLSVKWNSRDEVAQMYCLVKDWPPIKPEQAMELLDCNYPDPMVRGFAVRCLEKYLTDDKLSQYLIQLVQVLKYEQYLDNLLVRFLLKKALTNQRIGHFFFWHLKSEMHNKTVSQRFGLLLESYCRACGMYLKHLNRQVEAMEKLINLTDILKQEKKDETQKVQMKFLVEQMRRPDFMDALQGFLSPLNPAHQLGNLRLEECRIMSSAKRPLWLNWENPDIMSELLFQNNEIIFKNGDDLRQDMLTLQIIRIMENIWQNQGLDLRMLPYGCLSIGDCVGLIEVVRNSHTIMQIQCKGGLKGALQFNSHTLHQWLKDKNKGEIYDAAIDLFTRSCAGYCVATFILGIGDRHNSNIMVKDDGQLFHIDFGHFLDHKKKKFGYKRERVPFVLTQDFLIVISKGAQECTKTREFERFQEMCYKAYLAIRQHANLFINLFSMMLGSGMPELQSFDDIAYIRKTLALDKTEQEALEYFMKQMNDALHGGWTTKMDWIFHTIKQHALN

PKNB(M.tuberculosis) = target: T26, PKNB(M.tuberculosis) (Mycobacterium tuberculosis, UniProt P9WI81); assay: KinomeScan; assay type: binding; details: 1uM
T26 construct: purchased DiscoveRx KINOMEscan
T26 sequence (P9WI81 whole entry): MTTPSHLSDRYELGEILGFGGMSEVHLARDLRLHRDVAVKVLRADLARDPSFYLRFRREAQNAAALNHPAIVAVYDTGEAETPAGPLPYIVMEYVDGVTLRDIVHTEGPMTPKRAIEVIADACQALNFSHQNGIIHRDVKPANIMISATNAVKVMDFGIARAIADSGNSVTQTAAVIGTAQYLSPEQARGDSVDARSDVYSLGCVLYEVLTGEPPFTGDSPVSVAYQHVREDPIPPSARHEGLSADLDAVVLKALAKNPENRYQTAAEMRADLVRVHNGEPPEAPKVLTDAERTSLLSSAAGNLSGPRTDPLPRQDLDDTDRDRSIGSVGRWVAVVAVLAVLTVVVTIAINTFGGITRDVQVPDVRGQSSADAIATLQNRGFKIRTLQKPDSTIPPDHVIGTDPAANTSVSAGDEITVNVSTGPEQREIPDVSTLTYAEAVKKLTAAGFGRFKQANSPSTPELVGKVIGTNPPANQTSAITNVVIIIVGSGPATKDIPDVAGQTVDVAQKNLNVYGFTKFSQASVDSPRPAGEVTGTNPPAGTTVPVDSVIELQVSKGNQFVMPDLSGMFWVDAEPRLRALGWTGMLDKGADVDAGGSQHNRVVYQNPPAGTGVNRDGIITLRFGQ

PRKD2 = target: T27, PRKD2 (Homo sapiens, UniProt Q9BZL6); assay: KinomeScan; assay type: binding; details: 1uM
T27 construct: purchased DiscoveRx KINOMEscan
T27 sequence (Q9BZL6 whole entry): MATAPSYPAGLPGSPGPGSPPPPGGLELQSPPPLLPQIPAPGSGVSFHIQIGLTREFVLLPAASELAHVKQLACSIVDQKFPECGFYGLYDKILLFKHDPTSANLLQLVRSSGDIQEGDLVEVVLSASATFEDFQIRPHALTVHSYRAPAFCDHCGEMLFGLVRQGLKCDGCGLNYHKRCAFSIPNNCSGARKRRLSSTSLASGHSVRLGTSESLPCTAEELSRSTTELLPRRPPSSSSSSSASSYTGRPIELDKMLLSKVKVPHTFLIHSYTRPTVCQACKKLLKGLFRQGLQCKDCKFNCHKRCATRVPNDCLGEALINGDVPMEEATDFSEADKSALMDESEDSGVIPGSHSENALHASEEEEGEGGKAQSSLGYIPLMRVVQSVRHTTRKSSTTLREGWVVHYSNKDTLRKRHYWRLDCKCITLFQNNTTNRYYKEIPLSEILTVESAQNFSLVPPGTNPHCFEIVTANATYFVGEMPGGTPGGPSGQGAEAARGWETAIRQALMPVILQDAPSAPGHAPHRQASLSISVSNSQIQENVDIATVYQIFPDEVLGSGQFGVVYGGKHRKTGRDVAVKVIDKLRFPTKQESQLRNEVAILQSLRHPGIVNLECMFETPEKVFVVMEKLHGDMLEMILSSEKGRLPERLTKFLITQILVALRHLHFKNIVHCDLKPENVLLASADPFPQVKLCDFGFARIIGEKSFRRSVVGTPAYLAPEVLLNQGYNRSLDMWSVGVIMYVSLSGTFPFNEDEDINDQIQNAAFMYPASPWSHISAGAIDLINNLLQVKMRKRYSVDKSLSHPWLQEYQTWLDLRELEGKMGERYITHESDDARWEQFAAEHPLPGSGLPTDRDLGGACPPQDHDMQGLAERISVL

PRKG2 = target: T28, PRKG2 (Homo sapiens, UniProt Q13237); assay: KinomeScan; assay type: binding; details: 1uM
T28 construct: purchased DiscoveRx KINOMEscan

PRKX = target: T29, PRKX (Homo sapiens, UniProt P51817); assay: KinomeScan; assay type: binding; details: 1uM
T29 construct: purchased DiscoveRx KINOMEscan

PYK2 = target: T30, PYK2 (Homo sapiens, UniProt Q14289); assay: KinomeScan; assay type: binding; details: 1uM
T30 construct: purchased DiscoveRx KINOMEscan

RIPK4 = target: T31, RIPK4 (Homo sapiens, UniProt P57078); assay: KinomeScan; assay type: binding; details: 1uM
T31 construct: purchased DiscoveRx KINOMEscan

[3] = target: T32, RSK1(Kin.Dom.2-C-terminal) (Homo sapiens, UniProt Q15418); assay: KinomeScan; assay type: binding; details: 1uM
T32 construct: RSK1(Kin.Dom.2-C-terminal); purchased DiscoveRx KINOMEscan

[4] = target: T33, RSK2(Kin.Dom.1-N-terminal) (Homo sapiens, UniProt P51812); assay: KinomeScan; assay type: binding; details: 1uM
T33 construct: RSK2(Kin.Dom.1-N-terminal); purchased DiscoveRx KINOMEscan
T33 sequence (P51812 1-397 limits assumed): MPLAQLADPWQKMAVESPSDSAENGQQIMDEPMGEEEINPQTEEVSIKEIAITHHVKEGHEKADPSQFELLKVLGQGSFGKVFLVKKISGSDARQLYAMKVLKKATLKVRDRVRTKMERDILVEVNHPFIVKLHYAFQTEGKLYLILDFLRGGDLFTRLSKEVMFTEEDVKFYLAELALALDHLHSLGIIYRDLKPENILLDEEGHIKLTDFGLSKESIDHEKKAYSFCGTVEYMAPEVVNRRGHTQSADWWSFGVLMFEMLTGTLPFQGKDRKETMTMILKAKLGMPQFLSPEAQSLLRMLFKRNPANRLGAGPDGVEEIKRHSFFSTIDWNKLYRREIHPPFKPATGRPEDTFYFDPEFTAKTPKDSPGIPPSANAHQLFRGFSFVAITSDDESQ

SRC = target: T34, SRC (Homo sapiens, UniProt P12931); assay: KinomeScan; assay type: binding; details: 1uM
T34 construct: purchased DiscoveRx KINOMEscan

VRK2 = target: T35, VRK2 (Homo sapiens, UniProt Q86Y07); assay: KinomeScan; assay type: binding; details: 1uM
T35 construct: purchased DiscoveRx KINOMEscan

YANK2 = target: T36, YANK2 (Homo sapiens, UniProt Q9NY57); assay: KinomeScan; assay type: binding; details: 1uM
T36 construct: purchased DiscoveRx KINOMEscan
T36 sequence (Q9NY57 whole entry): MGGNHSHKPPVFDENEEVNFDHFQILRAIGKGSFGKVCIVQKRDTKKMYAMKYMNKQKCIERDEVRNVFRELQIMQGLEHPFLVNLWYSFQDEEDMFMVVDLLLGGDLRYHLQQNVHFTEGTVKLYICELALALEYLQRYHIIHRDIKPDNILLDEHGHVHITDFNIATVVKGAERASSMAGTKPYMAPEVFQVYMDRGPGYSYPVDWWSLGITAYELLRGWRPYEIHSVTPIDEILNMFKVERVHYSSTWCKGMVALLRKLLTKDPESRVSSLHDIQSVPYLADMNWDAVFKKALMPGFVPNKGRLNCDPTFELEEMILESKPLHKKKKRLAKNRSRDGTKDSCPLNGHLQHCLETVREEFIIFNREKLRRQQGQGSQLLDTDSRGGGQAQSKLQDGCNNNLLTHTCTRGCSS

Hs 505T = assay: Anti-proliferative assay; assay type: cell-based; details: Homo sapiens, CLL, 72 hours, CellTiter-Glo
Protocol: (§1) Cells were grown in 96-well culture plates (3000-4000/well). […] Cell proliferation was determined after treatment with compounds for 72 hours. Cell viability was measured using the CellTiter–Glo Assay Kit (Promega, USA), according to the manufacturer's instructions, and luminescence was measured in a multi-label reader (Envision, PerkinElmer, USA). Data were normalized to control groups (DMSO) and represented by the mean of three independent measurements with standard error <20%. GI50 values were calculated using Prism 5.0 (GraphPad Software, San Diego, CA).

[5] = test system: panel of cancer cell lines derived from B-cell malignancies; assay: Anti-proliferative assay (panel summary); assay type: cell-based; details: Homo sapiens; most of the cell lines including AML, B-cell lymphoma and multiple myeloma cell lines
Protocol: as §1

Cc1nc(NC(=O)[C@@H](N)C(C)C)sc1-c1cnc(Cl)c(NS(=O)(=O)c2ccccc2)c1 [PI3KD-IN-015]
KinomeScan ABL1(E255K)-phosphorylated [1]: 77
KinomeScan ABL1(F317I)-nonphosphorylated [2]: 100
KinomeScan ABL1-phosphorylated (ABL1-phosphorylated): 85
KinomeScan AURKA (AURKA): 93
KinomeScan BUB1 (BUB1): 100
KinomeScan CDC2L1 (CDC2L1): 100
KinomeScan DRAK2 (DRAK2): 70
KinomeScan EGFR(T790M) (EGFR(T790M)): 70
KinomeScan EIF2AK1 (EIF2AK1): 100
KinomeScan ERK2 (ERK2): 100
KinomeScan FAK (FAK): 80
KinomeScan GSK3A (GSK3A): 95
KinomeScan ICK (ICK): 95
KinomeScan KIT(D816H) (KIT(D816H)): 92
KinomeScan LKB1 (LKB1): 79
KinomeScan MAP4K5 (MAP4K5): 100
KinomeScan MERTK (MERTK): 96
KinomeScan MET (MET): 100
KinomeScan MINK (MINK): 100
KinomeScan MKK7 (MKK7): 98
KinomeScan MST1 (MST1): 83
KinomeScan PCTK2 (PCTK2): 100
KinomeScan PFTK1 (PFTK1): 100
KinomeScan PIK3CA(C420R) (PIK3CA(C420R)): 4.5
KinomeScan PIK3CA(H1047L) (PIK3CA(H1047L)): 0
KinomeScan PKNB(M.tuberculosis) (PKNB(M.tuberculosis)): 79
KinomeScan PRKD2 (PRKD2): 94
KinomeScan PRKG2 (PRKG2): 100
KinomeScan PRKX (PRKX): 95
KinomeScan PYK2 (PYK2): 95
KinomeScan RIPK4 (RIPK4): 100
KinomeScan RSK1(Kin.Dom.2-C-terminal) [3]: 96
KinomeScan RSK2(Kin.Dom.1-N-terminal) [4]: 100
KinomeScan SRC (SRC): 91
KinomeScan VRK2 (VRK2): 91
KinomeScan YANK2 (YANK2): 99
GI50 (Hs 505T): > 10 µM
GI50 [5]: 1 to 10 µM

Source: PMC5078040 (Oncotarget, 2016)
